Key:
[1] = target: human D2L dopaminergic receptor (Homo sapiens, UniProt P14416); experiment: Affinity for human D2L receptors stably expressed in CHO cells, [3H]-spiperone competition; format: binding; settings: CHO cell membranes, 0.5 nM [3H]-spiperone, 1 hour at 30° C.; read-out: Affinity (pKi) hD2L (converted)
Protocol: (§1) Determination of Affinity for Human D3, D2S and D2L Receptors Stably Expressed in CHO Cells
(§2) The various cell lines are cultured to confluence and then the cells are detached and are homogenised using a Polytron in a Tris-HCl buffer (50 mM, pH 7.4) containing 5 mM MgCl2. The cell debris is then centrifuged (15 minutes at 4° C.) and the sediment is taken up in an appropriate volume of HEPES buffer (20 mM) containing 150 mM NaCl and is frozen at −80° C. On the day of the experiment, the membranes are taken up in incubation buffer containing 50 mM Tris (pH 7.4), 120 mM NaCl, 5 mM KCl, 2 mM CaCl2 and 5 mM MgCl2. […] The non-specific binding is determined using 10 μM raclopride. At the end of the incubation period, the samples are filtered through Unifilter GF/B type filters pre-treated with PEI (0.1%) and washed several times with Tris-HCl filtration buffer (50 mM, pH 7.4) containing 120 mM NaCl. The radioactivity retained on the filters is counted after addition of scintillation liquid, with the aid of a scintillation counter. […] The results are expressed in terms of pKi=−log Ki.

[2] = target: human D3 dopaminergic receptor (Homo sapiens, UniProt P35462); experiment: Affinity for human D3 receptors stably expressed in CHO cells, [3H]-spiperone competition; format: binding; settings: CHO cell membranes, 0.5 nM [3H]-spiperone, 1 hour at 30° C.; read-out: Affinity (pKi) hD3 (converted)
Protocol: as §1, §2

[3] = target: human D2S dopaminergic receptor (Homo sapiens, UniProt P14416); experiment: Affinity for human D2S receptors stably expressed in CHO cells, [3H]-spiperone competition; format: binding; settings: CHO cell membranes, 0.5 nM [3H]-spiperone, 1 hour at 30° C.; read-out: Affinity (pKi) hD2S (converted)
Protocol: as §1, §2

[4] = tested on: D3/D2 receptor; experiment: Inhibition of hypothermia induced by the dopaminergic agonist PD128,907; format: in vivo, rat; settings: for Δ (° C.) ± S.E.M.s: PD128,907 0.63 mg/kg s.c. at T0, rectal temperature 30 min later vs baseline; for ID50 (Inhibitory Dose50): inhibition of hypothermia induced by PD128,907 0.63 mg/kg s.c.
Protocol: Inhibition of Induction of Hypothermia Induced by the Dopaminergic Agonist PD128,907
In male rats of the Wistar strain, the baseline (rectal) temperature is measured and then the compound under test or the vehicle is administered by the oral route. Sixty minutes later, PD128,907 (0.63 mg/kg, s.c.), a D3/D2 dopaminergic agonist, is injected. Thirty minutes later, the body temperature is re-determined and the difference (Δ) from the baseline temperature is calculated.

[5] = male Wistar rats, compound 0.04 mg/kg p.o. at T-60 min
[6] = male Wistar rats, compound 0.16 mg/kg p.o. at T-60 min
[7] = male Wistar rats, compound 0.63 mg/kg p.o. at T-60 min
[8] = male Wistar rats, compound 2.5 mg/kg p.o. at T-60 min
[9] = male Wistar rats, compound 10.0 mg/kg p.o. at T-60 min

Chain of human D3 dopaminergic receptor (P35462 whole entry): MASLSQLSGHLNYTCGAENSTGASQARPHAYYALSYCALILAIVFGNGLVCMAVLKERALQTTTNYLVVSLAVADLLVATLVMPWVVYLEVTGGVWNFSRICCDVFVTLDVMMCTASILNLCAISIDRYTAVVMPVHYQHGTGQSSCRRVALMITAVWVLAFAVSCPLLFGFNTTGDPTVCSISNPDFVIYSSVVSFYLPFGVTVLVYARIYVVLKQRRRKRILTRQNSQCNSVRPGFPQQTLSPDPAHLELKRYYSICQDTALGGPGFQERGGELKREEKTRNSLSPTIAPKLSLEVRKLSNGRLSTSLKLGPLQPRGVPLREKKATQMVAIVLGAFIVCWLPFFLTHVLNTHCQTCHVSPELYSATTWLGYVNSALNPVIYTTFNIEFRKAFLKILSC
Chain of human D2S dopaminergic receptor (P14416 1-414 isoform P14416-2): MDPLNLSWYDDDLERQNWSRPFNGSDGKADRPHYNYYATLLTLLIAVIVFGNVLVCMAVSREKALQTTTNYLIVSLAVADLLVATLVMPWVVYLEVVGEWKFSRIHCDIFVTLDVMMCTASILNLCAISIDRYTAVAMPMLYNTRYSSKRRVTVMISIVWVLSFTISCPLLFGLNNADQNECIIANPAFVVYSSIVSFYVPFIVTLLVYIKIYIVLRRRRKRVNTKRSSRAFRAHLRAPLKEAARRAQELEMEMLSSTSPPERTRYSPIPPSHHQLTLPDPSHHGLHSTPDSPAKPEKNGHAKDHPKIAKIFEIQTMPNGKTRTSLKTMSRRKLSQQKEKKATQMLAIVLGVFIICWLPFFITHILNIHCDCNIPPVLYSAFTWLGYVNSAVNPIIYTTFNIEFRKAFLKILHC
Chain of human D2L dopaminergic receptor (P14416 whole entry): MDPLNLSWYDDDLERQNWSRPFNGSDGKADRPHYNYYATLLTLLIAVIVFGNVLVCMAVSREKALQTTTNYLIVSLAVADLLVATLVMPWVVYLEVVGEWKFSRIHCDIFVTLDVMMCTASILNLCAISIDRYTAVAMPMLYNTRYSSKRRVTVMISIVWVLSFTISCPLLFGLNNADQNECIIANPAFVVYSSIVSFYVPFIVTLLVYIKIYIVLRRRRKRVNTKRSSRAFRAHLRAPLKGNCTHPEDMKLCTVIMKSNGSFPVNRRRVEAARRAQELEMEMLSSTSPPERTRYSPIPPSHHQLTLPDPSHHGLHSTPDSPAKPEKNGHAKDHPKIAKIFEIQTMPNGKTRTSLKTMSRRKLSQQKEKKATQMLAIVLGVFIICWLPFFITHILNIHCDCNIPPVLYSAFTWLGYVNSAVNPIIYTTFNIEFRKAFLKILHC

Row | Ki [1] [nM] | Ki [2] [nM] | Ki [3] [nM] | Compound | Δ (° C.) ± S.E.M.s [4, 5] [°C] | Δ (° C.) ± S.E.M.s [4, 6] [°C] | Δ (° C.) ± S.E.M.s [4, 7] [°C] | Δ (° C.) ± S.E.M.s [4, 8] [°C] | Δ (° C.) ± S.E.M.s [4, 9] | ID50 (Inhibitory Dose50) ([4]; male Wistar rats) | Blocking of PD 128,907-induced hypothermia ([4]; male Wistar rats, oral route) | Effect of PD 128,907 on body temperature ([4]; in the presence of the vehicle)
1 | 100 | 2 | 117 | CC(=O)N[C@H]1CC[C@H](CCN2C[C@H]3COc4ccc(C#N)cc4[C@@H]3C2)CC1.Cl [Example 2, N-(trans-4-{2-[(3aS,9bR)-8-cyano-1,3a,4,9b-tetrahydrochromeno[3,4-c]pyrrol-2(3H)-yl]ethyl}cyclohexyl)acetamide hydrochloride] | −1.73 ± 0.26 | −1.33 ± 0.11 | −0.97 ± 0.28 | −0.4 ± 0.13 | +0.1 ± 0.33 °C | 1.33 mg/kg, p.o. | – | –
2 | 50.1 | 1.86 | 56.2 | Cl.N#Cc1ccc2c(c1)[C@@H]1CN(CC[C@H]3CC[C@H](NC(=O)C4CCC4)CC3)C[C@H]1CO2 [Example 3, N-(trans-4-{2-[(3aS,9bR)-8-cyano-1,3a,4,9b-tetrahydrochromeno[3,4-c]pyrrol-2(3H)-yl]ethyl}cyclohexyl)cyclobutanecarboxamide hydrochloride] | −1.65 ± 0.09 | −1.62 ± 0.07 | −0.83 ± 0.20 | −0.33 ± 0.16 | +0.35 ± 0.18 °C | 0.64 mg/kg, p.o. | blocked in dose-dependent manner | –
3 | – | – | – | CCCN1CCO[C@@H]2c3cc(O)ccc3OC[C@H]21 [PD128,907, reference compound] | – | – | – | – | – | – | – | brings about hypothermia

Source: patent US8247441B2, “Chromene compounds, a process for their preparation and pharmaceutical compositions containing them” (Les Laboratoires Servier, priority 2009, dated 2012)
